How the values were obtained:
[1] = molecular target: T1, Estrogen receptor (Rattus norvegicus) (UniProt P06211+Q62986); assay: Antiuterotrophic activity in immature rats at 50 ug; type: functional
[2] = molecular target: T1, Estrogen receptor (Rattus norvegicus); assay: Anti-uterotrophic activity in immature rats at 5 ug; type: functional
[3] = molecular target: T1, Estrogen receptor (Rattus norvegicus); assay: Antiuterotrophic activity in immature rats at 100 ug; type: functional
[4] = molecular target: T1, Estrogen receptor (Rattus norvegicus); assay: Estrogenic activity in immature rats and assayed as uterine weight gain at 50 ug subcutaneous dose; type: functional
[5] = molecular target: T1, Estrogen receptor (Rattus norvegicus); assay: Anti-uterotrophic activity in immature rats at 50 ug; type: functional
[6] = molecular target: T1, Estrogen receptor (Rattus norvegicus); assay: Estrogenic activity as percent of control at 100 ug subcutaneous dose; type: functional
[7] = molecular target: T1, Estrogen receptor (Rattus norvegicus)
[8] = molecular target: T1, Estrogen receptor (Rattus norvegicus); assay: Estrogenic activity in immature rats and assayed as uterine weight gain at 5 ug subcutaneous dose; type: functional
[9] = molecular target: T1, Estrogen receptor (Rattus norvegicus); assay: Estrogenic activity as percent of control at 50 ug subcutaneous dose; type: functional
[10] = molecular target: T1, Estrogen receptor (Rattus norvegicus); assay: Estrogenic activity in immature rats and assayed as uterine weight gain at 0.05 ug subcutaneous dose; type: functional
[11] = molecular target: T1, Estrogen receptor (Rattus norvegicus); assay: Estrogenic activity as percent of control at 5 ug subcutaneous dose; type: functional
[12] = molecular target: T1, Estrogen receptor (Rattus norvegicus); assay: Estrogenic activity in immature rats and assayed as uterine weight gain at 100 ug subcutaneous dose; type: functional
[13] = molecular target: T1, Estrogen receptor (Rattus norvegicus); assay: Antiuterotrophic activity in immature rats at 5 ug; type: functional
[14] = molecular target: T1, Estrogen receptor (Rattus norvegicus); assay: Anti-uterotrophic activity in immature rats at 100 ug; type: functional
Rattus norvegicus = species on record: Rattus norvegicus; assay: Antiimplantation activity in sperm-positive female albino rats mated to coeval males of proven fertility; type: functional
[15] = molecular target: T1, Estrogen receptor (Rattus norvegicus); assay: Estrogenic activity in immature rats and assayed as uterine weight gain at 500 ug subcutaneous dose; type: functional
[16] = molecular target: T1, Estrogen receptor (Rattus norvegicus); assay: Estrogenic activity as percent of control at 500 ug subcutaneous dose; type: functional

Structure (SMILES)	Stimulation [1]	Uterine wet weight [2]	inhibition [2]	Stimulation [3]	Uterine wet weight [4]	Uterine wet weight [5]	Control [6]	Uterine wet weight [7]	Uterine wet weight [8]	Control [9]	Uterine wet weight [10]	Control [11]	Uterine wet weight [12]	Stimulation [13]	Uterine wet weight [14]	inhibition [14]	MED (Rattus norvegicus)	further results
COc1ccc2c(c1)OC(C)(C)C(c1ccccc1)C2c1ccc(OCCN2CCCC2)cc1 (racemic)	94%	52.5	23.8%	87%	47.7	60.3	288%	16.3	29.5	281%	16.6	174%	49	82%	56	16.7%	–	inhibition [5]: 8.1%
COc1ccc2c(c1)OC(C)(C)C(c1ccccc1)C2c1ccc(OCCN2CCCC2)cc1 (racemic) [ORMELOXIFENE]	–	–	–	–	–	–	–	–	–	–	–	–	–	–	–	–	0.25 mg/kg	–
COc1ccc2c(c1)OC(C)(C)C(c1ccccc1)C2c1ccc(OCCN2CCCC2)cc1 (stereo in doubt; form 1)	105%	52.3	1.9%	80%	40.5	55.7	238%	16.8	31.8	238%	16.2	187%	40.4	99%	42.3	28.4%	–	Uterine wet weight [15]: 45.4; Control [16]: 267%
COc1ccc2c(c1)OC(C)(C)C(c1ccccc1)C2c1ccc(OCCN2CCCC2)cc1 (stereo in doubt; form 1) [ORMELOXIFENE]	–	–	–	–	–	–	–	–	–	–	–	–	–	–	–	–	5 mg/kg	–
COc1ccc2c(c1)OC(C)(C)C(c1ccccc1)C2c1ccc(OCCN2CCCC2)cc1 (stereo in doubt; form 2)	77%	52.7	28.7%	68%	48.6	52.6	303%	25.8	37.8	286%	15.8	222%	51.4	77%	46.4	40.3%	–	inhibition [5]: 28.7%
COc1ccc2c(c1)OC(C)(C)C(c1ccccc1)C2c1ccc(OCCN2CCCC2)cc1 (stereo in doubt; form 2) [ORMELOXIFENE]	–	–	–	–	–	–	–	–	–	–	–	–	–	–	–	–	0.15 mg/kg	–
COc1ccc2c(c1)CCC(c1ccccc1)=C2c1ccc(OCCN2CCCC2)cc1 [NAFOXIDINE]	–	–	–	–	–	–	–	–	–	–	–	–	–	–	–	–	–	minimal effective dose (Rattus norvegicus; Rattus norvegicus, read-out: MED): 0.1 mg/kg
